In one series the test system is ISC-enriched organoids. Description: Primary screen, 384-well 2.5-D organoid differentiation (ENR+CD, 6 days, Target Selective Inhibitor Library, vs whole-plate median): ATP (CellTiter-Glo 3D, CTG). As to conditions: for Z.CTG / SSMD.CTG: primary screen; for Z.CTG: standard z score; for SSMD.CTG: strictly standardized mean difference.
For series [1], the system named is human small intestinal organoids. The series can be described thus: Lysozyme secretion assay, stem cell-enriched human small intestinal organoids. It counts as cell-based. As to conditions: increasing KPT-330 concentrations, 6 days, three duodenal donors.
Description: To extend the observations from the murine organoid system, Applicants sought to examine how XPO1 inhibition via KPT-330 may effect human small intestinal stem cells by utilizing a stem-cell enriched human small intestinal organoid model^46 (see Methods).
Human crypt isolation and organoid culture. Samples from adult human duodenum were collected for organoid culture in accordance with MGH IRB guidance. Human donor tissue was non-inflamed excess tissue collected during bulk surgical resection via MGH pathology. Crypts were isolated from bulk resections as follows. Bulk resections were cut into approximately 0.25 cm sections from epithelial surface, and washed in PBSO repeatedly by gently pipetting the fragments using a 10-ml pipette until the supernatant was clear. Fragments were rocked on ice with crypt isolation buffer (10 mM EDTA, 10 mM HEPES, 2% FCS in PBSO) for 30 min. After isolation buffer was removed, fragments were washed with cold PBSO by vigorous shaking to release the crypts, this process was repeated with reserved crypt-laden supernatant fractions 4-6 times or until supernatant was free of intact crypts (visual inspection). […]
Lysozyme secretion assay. […] The solution was replaced to a 96-well white microplate, and luminescent signals were measured by a microplate reader (infinite M200, Tecan).
Another series concerns Paneth cells. The series can be described thus: Immunofluorescent imaging of organoids: LYZ+ cells per organoid area. It counts as cell-based, murine. The protocol: Immunofluorescent imaging. For immunofluorescence staining of organoids, intestinal organoids in Matrigel were fixed with 4% paraformaldehyde, then transferred to centrifuge tube. After washing with PBS, the isolated organoids were permeabilized with 1% Triton X followed by incubation with blocking buffer (1% BSA+3% Donkey Serum+0.2% Triton X in PBS) at RT. The organoids were then stained with primary antibodies and fluorescent dye-labeled secondary antibodies as well as with DAPI. Slides were covered with […]® Mounting Media (VECTOR). The following primary and secondary antibodies were used for the staining: rabbit anti-Lysozyme (1:1000, Thermo Fisher Scientific), rat anti-E-cadherin (1:1000, Thermo Fisher Scientific), Alexa Fluor 488 and 568 secondary antibodies (1:1000, Invitrogen). Images were acquired with a confocal laser scanning microscope (Nikon Eclipse 90i). For the analysis of Lysozyme+ cells per organoid area, the number of counted Lysozyme+ cells were normalized to measured organoid surface area. Image J was used for the data analysis.

A short description of series [2]: In vivo oral gavage of KPT-330 every other day for two weeks: body weight. Set-up: species or system C57BL/6 wild-type mice. The protocol: Following a similar protocol as previously reported for SINE treatment in the context of cancer (Arango et al., 2017; Azmi et al., 2013; Hing et al., 2016; Zheng et al., 2014), KPT-330 was administered at a dose 10 mg/kg via oral gavage every other day over a two-week span in C57BL/6 wild-type mice, and body weight was monitored for any clear toxicity. […] Given animal weight loss on the standard chemotherapeutic dosage regimen, and additional evidence that sustained dosage of SINEs adversely impacts T cell populations (Tyler et al., 2017), Applicants sought to explore dosing regimens well below 10 mg/kg, to see if a pro-Paneth phenotype may exist below potential toxicities. […] Applicants tracked animal weight every other day, and at day 14 collected the proximal and distal thirds of the small intestine for histological quantification of Paneth, stem, and goblet populations (FIG. 26A). […] Paneth cells were counted within well preserved crypts, with at minimum 30 crypts quantified per animal (representative images FIG. 30C) and then averaged to get mean Paneth cells per crypt in distal and proximal thirds of the small intestine. […] Applicants additionally quantified the abundance of Olfm4+ stem cells as well as PAS+ goblet cells within the same animals to ascertain whether the effect of SINE treatment was restricted to the Paneth cell compartment (representative images FIG. 30D,E). […]

This note sets out measurements from US20230398130A1, “METHODS AND COMPOSITIONS FOR DIFFERENTIATING STEM CELLS” (Massachusetts Institute of Technology, priority 2020, published 2023).

Regarding `O=C(/C=C\n1cnc(-c2cc(C(F)(F)F)cc(C(F)(F)F)c2)n1)NNc1cnccn1` [KPT-330], the Z.CTG in the series on ISC-enriched organoids (Dose 0.08 uM) is 0.503; in the series on ISC-enriched organoids (Dose 0.40 uM), −1.569; with ISC-enriched organoids (Dose 2.00 uM) it was −2.135; in the series on ISC-enriched organoids (Dose 10.00 uM), −4.480. Moreover, in the series on ISC-enriched organoids (primary screening), the “toxicity at concentrations higher than 160 nM” value is given as “higher concentrations proved toxic”. The SSMD.CTG in the series on ISC-enriched organoids (1st of the 4 dose lines of the treatment (dose not given)) is 0.686; in the series with ISC-enriched organoids (2nd of the 4 dose lines of the treatment (dose not given)), −0.942; in the series with ISC-enriched organoids (3rd of the 4 dose lines of the treatment (dose not given)), −2.044; with ISC-enriched organoids (4th of the 4 dose lines of the treatment (dose not given)), −2.988. In addition, in series [1], the “normalized LYZ secretion” value was “normalized LYZ secretion significantly increases with dose”. Also, the “LYZ+ Paneth cell number (IF imaging)” value is on record as “pro-Paneth differentiation effect is also observed” in the series with Paneth cells (ENR with or without 160 nM KPT-330, 3 days) and “an increase in Paneth cell number” with Paneth cells (ENR+CD with 160 nM KPT-330, 6 days). For the same compound, the body weight result was “no significant changes in animal weight at any dose” in series [2] (0.01, 0.05 or 0.2 mg/kg oral gavage every other day) and “significant weight loss indicative of toxicity” in series [2] (10 mg/kg oral gavage every other day).
